In patent publication US20260250290A1 (BRISTOL-MYERS SQUIBB COMPANY, priority 2023, published 2026):
Structures can show the parent of a compound that is named as a salt.

These compounds were tested against T1, full length SGK1 (Homo sapiens, UniProt O00141) (assay: SGK1 inhibition Assay A (Caliper LabChip electrophoretic separation of fluorescent peptide substrate and phosphorylated product)). Settings: Assay A; 20 μM ATP, 40 min incubation; read-out: SGK1 IC50.
T1 construct: 125 μM full length SGK1 (Life Technologies Part #PR7358A); purchased Life Technologies PR7358A
T1 sequence (O00141 1-431): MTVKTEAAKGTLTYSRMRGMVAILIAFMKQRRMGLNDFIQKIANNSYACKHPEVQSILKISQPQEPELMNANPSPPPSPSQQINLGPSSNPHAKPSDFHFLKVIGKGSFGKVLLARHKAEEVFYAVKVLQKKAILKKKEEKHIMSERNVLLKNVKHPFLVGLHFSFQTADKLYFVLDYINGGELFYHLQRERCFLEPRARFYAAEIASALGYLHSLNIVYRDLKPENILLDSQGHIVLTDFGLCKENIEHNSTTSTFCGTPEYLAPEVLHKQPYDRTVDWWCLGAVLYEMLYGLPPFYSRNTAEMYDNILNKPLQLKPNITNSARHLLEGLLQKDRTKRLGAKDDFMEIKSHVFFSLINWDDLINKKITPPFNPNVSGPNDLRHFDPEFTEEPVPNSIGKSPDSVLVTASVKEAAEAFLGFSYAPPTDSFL
Type: biochemical

| Compound | IC50 [nM] |
| --- | --- |
| Cn1cc(-c2cc(N3CCC[C@@H](NC(=O)c4ccc(Cl)s4)C3)c3c(N)ncnn23)nn1 [Example 868, (R)—N-(1-(4-amino-7-(1-methyl-1H-1,2,3-triazol-4-yl)pyrrolo[2,1-f][1,2,4]triazin-5-yl)piperidin-3-yl)-5-chlorothiophene-2-carboxamide] | 114 |
| Nc1ncnn2c(-c3ccc4cnoc4c3)cc(N3CCC[C@@H](NC(=O)c4ccc(Cl)s4)C3)c12 [Example 871, (R)—N-(1-(4-amino-7-(benzo[d]isoxazol-6-yl)pyrrolo[2,1-f][1,2,4]triazin-5-yl)piperidin-3-yl)-5-chlorothiophene-2-carboxamide] | 6 |
| CN(C)CCOc1cc(Cl)sc1C(=O)N[C@@H]1CCCN(c2cc(-c3ccc4cnoc4c3)n3ncnc(N)c23)C1 [Example 872, (R)—N-(1-(4-amino-7-(benzo[d]isoxazol-6-yl)pyrrolo[2,1-f][1,2,4]triazin-5-yl)piperidin-3-yl)-5-chloro-3-(2-(dimethylamino)ethoxy)thiophene-2-carboxamide] | 3 |
| CC(=O)N1CC=C(c2cc(N3CCC[C@@H](NC(=O)Oc4ccccc4)C3)c3c(N)ncnn23)C1 [Example 873, phenyl (R)-(1-(7-(1-acetyl-2,5-dihydro-1H-pyrrol-3-yl)-4-aminopyrrolo[2,1-f][1,2,4]triazin-5-yl)piperidin-3-yl)carbamate] | 936 |
| CC(=O)N1CC=C(c2cc(N3CCC[C@@H](NC(=O)N4CC[C@@H](O)C4)C3)c3c(N)ncnn23)C1 [Example 874, (R)—N—((R)-1-(7-(1-acetyl-2,5-dihydro-1H-pyrrol-3-yl)-4-aminopyrrolo[2,1-f][1,2,4]triazin-5-yl)piperidin-3-yl)-3-hydroxypyrrolidine-1-carboxamide] | 482 |
| CC(=O)N1CC=C(c2cc(N3CCC[C@@H](NC(=O)N4CC[C@H](O)C4)C3)c3c(N)ncnn23)C1 [Example 875, (S)-N-((R)-1-(7-(1-acetyl-2,5-dihydro-1H-pyrrol-3-yl)-4-aminopyrrolo[2,1-f][1,2,4]triazin-5-yl)piperidin-3-yl)-3-hydroxypyrrolidine-1-carboxamide] | 477 |
| CC(=O)N1CC=C(c2cc(N3CCC[C@@H](NC(=O)N4CCCC4)C3)c3c(N)ncnn23)C1 [Example 876, (R)-N-(1-(7-(1-acctyl-2,5-dihydro-1H-pyrrol-3-yl)-4-aminopyrrolo[2,1-f][1,2,4]triazin-5-yl)piperidin-3-yl)pyrrolidine-1-carboxamide] | 264 |
| CC(=O)N1CC=C(c2cc(N3CCC[C@@H](NC(=O)c4ccon4)C3)c3c(N)ncnn23)C1 [Example 879, (R)—N-(1-(7-(1-acetyl-2,5-dihydro-1H-pyrrol-3-yl)-4-aminopyrrolo[2,1-f][1,2,4]triazin-5-yl)piperidin-3-yl)isoxazole-3-carboxamide] | 149 |

Second part, the compound after the results:

| IC50 [nM] | Compound |
| --- | --- |
| 15 | Nc1ncnn2c(C3=CCN(C(=O)c4nccs4)C3)cc(N3CCC[C@@H](NC(=O)c4ccc(Cl)s4)C3)c12 [Example 880, (R)—N-(1-(4-amino-7-(1-(thiazole-2-carbonyl)-2,5-dihydro-1H-pyrrol-3-yl)pyrrolo[2,1-f][1,2,4]triazin-5-yl)piperidin-3-yl)-5-chlorothiophene-2-carboxamide] |
| 7 | NCC(=O)N1CC=C(c2cc(N3CCC[C@@H](NC(=O)c4ccc(Cl)s4)C3)c3c(N)ncnn23)C1 [Example 881, (R)-N-(1-(4-amino-7-(1-glycyl-2,5-dihydro-1H-pyrrol-3-y1)pyrrolo[2,1-f][1,2,4]triazin-5-yl)piperidin-3-y1)-5-chlorothiophene-2-carboxamide] |
| 1 | Nc1ncnn2c(C3=CCN(C(=O)c4ccon4)C3)cc(N3CCC[C@@H](NC(=O)c4ccc(Cl)s4)C3)c12 [Example 882, (R)-N-(1-(4-amino-7-(1-(isoxazole-3-carbonyl)-2,5-dihydro-1H-pyrrol-3-yl)pyrrolo[2,1-f][1,2,4]triazin-5-y1)piperidin-3-y1)-5-chlorothiophene-2-carboxamide] |
| 6 | NCCC(=O)N1CC=C(c2cc(N3CCC[C@@H](NC(=O)c4ccc(Cl)s4)C3)c3c(N)ncnn23)C1 [Example 883, (R)-N-(1-(4-amino-7-(1-(3-aminopropanoy1)-2,5-dihydro-1H-pyrrol-3-yl)pyrrolo[2,1-f][1,2,4]triazin-5-y1)piperidin-3-y1)-5-chlorothiophene-2-carboxamide] |
| 99 | Cc1nc(-c2cc(C(=O)N3CC=C(c4cc(N5CCC[C@@H](NC(=O)c6ccc(Cl)s6)C5)c5c(N)ncnn45)C3)no2)cs1 [Example 884, (R)-N-(1-(4-amino-7-(1-(5-(2-methylthiazol-4-yl)isoxazole-3-carbony1)-2,5-dihydro-1H-pyrrol-3-yl)pyrrolo[2,1-f][1,2,4]triazin-5-y1)piperidin-3-y1)-5-chlorothiophene-2-carboxamide] |
| 8 | Nc1ncnn2c(C3=CCN(C(=O)c4ccns4)C3)cc(N3CCC[C@@H](NC(=O)c4ccc(Cl)s4)C3)c12 [Example 885, (R)-N-(1-(4-amino-7-(1-(isothiazole-5-carbonyl)-2,5-dihydro-1H-pyrrol-3-yl)pyrrolo[2,1-f][1,2,4]triazin-5-y1)piperidin-3-y1)-5-chlorothiophene-2-carboxamide] |
| 4 | Nc1ncnn2c(C3=CCN(C(=O)c4cncs4)C3)cc(N3CCC[C@@H](NC(=O)c4ccc(Cl)s4)C3)c12 [Example 886, (R)-N-(1-(4-amino-7-(1-(thiazole-5-carbonyl)-2,5-dihydro-1H-pyrrol-3-yl)pyrrolo[2,1-f][1,2,4]triazin-5-yl)piperidin-3-y1)-5-chlorothiophene-2-carboxamide] |
| 8 | Nc1ncnn2c(C3=CCN(C(=O)c4ncco4)C3)cc(N3CCC[C@@H](NC(=O)c4ccc(Cl)s4)C3)c12 [Example 887, (R)-N-(1-(4-amino-7-(1-(oxazole-2-carbonyl)-2,5-dihydro-1H-pyrrol-3-y1)pyrrolo[2,1-f][1,2,4]triazin-5-y1)piperidin-3-y1)-5-chlorothiophene-2-carboxamide] |
| 6 | Nc1ncnn2c(C3=CCN(C(=O)[C@H]4CCOC4)C3)cc(N3CCC[C@@H](NC(=O)c4ccc(Cl)s4)C3)c12 [Example 888, N-((R)-1-(4-amino-7-(1-((S)-tetrahydrofuran-3-carbonyl)-2,5-dihydro-1H-pyrrol-3-yl)pyrrolo[2,1-f][1,2,4]triazin-5-yl)piperidin-3-y1)-5-chlorothiophene-2-carboxamide] |
| 21 | Nc1ncnn2c(C3=CCN(C(=O)[C@H]4CCCN4)C3)cc(N3CCC[C@@H](NC(=O)c4ccc(Cl)s4)C3)c12 [Example 889, N-((R)-1-(7-(1-(D-proly1)-2,5-dihydro-1H-pyrrol-3-y1)-4-aminopyrrolo[2,1-f][1,2,4]triazin-5-yl)piperidin-3-y1)-5-chlorothiopbene-2-carboxamide, TFA] |
| 1 | Nc1ncnn2c(C3=CCN(C(=O)c4cnco4)C3)cc(N3CCC[C@@H](NC(=O)c4ccc(Cl)s4)C3)c12 [Example 890, (R)-N-(1-(4-amino-7-(1-(oxazole-5-carbony1)-2,5-dihydro-1H-pyrrol-3-y1)pyrrolo[2,1-f][1,2,4]triazin-5-yl)piperidin-3-y1)-5-chlorothiophene-2-carboxamide] |
| 25 | Nc1ncnn2c(C3=CCN(C(=O)[C@H]4CCNC4)C3)cc(N3CCC[C@@H](NC(=O)c4ccc(Cl)s4)C3)c12 [Example 891, N-((R)-1-(4-amino-7-(1-((S)-pyrrolidine-3-carbonyl)-2,5-dihydro-1H-pyrrol-3-y1)pyrrolo[2,1-f][1,2,4]triazin-5-y1)piperidin-3-y1)-5-chlorothiophene-2-carboxamide] |
| 15 | Nc1ncnn2c(C3=CCN(C(=O)[C@H]4CCCCN4)C3)cc(N3CCC[C@@H](NC(=O)c4ccc(Cl)s4)C3)c12 [Example 892, N-((R)-1-(4-amino-7-(1-((R)-piperidine-2-carbonyl)-2,5-dihydro-1H-pyrrol-3-y1)pyrrolo[2,1-f][1,2,4]triazin-5-yl)piperidin-3-y1)-5-chlorothiophene-2-carboxamide, TFA] |
| 7 | Nc1ncnn2c(C3=CCN(C(=O)C4CCCOC4)C3)cc(N3CCC[C@@H](NC(=O)c4ccc(Cl)s4)C3)c12 (stereo partly drawn) [Example 893, N-((3R)-1-(4-amino-7-(1-(tetrahydro-2H-pyran-3-carbony1)-2,5-dihydro-1H-pyrrol-3-yl)pyrrolo[2,1-f][1,2,4]triazin-5-y1)piperidin-3-y1)-5-chlorothiophene-2-carboxamide] |
| 14 | Nc1ncnn2c(C3=CCN(C(=O)C4CCNCC4)C3)cc(N3CCC[C@@H](NC(=O)c4ccc(Cl)s4)C3)c12 [Example 894, (R)-N-(1-(4-amino-7-(1-(piperidine-4-carbonyl)-2,5-dihydro-1H-pyrrol-3-yl)pyrrolo[2,1-f][1,2,4]triazin-5-yl)piperidin-3-y1)-5-chlorothiophene-2-carboxamide] |

Same assay, conditions: SGK1 IC50, Assay A; 20 μM ATP, 40 min incubation

| Compound | IC50 [nM] |
| --- | --- |
| CC(=O)N1CC=C(c2cc(N3CCC[C@@H](NC(=O)c4cccc(S(=O)(=O)F)c4)C3)c3c(N)ncnn23)C1 [Example 869, (R)-3-((1-(7-(1-acetyl-2,5-dihydro-1H-pyrrol-3-yl)-4-aminopyrrolo[2,1-f][1,2,4]triazin-5-yl)piperidin-3-yl)carbamoyl)benzenesulfonyl fluoride] | 125 |
| CC(=O)N1CC=C(c2cc(N3CCC[C@@H](NC(=O)c4ccc(S(=O)(=O)F)cc4)C3)c3c(N)ncnn23)C1 [Example 870, (R)-4-((1-(7-(1-acetyl-2,5-dihydro-1H-pyrrol-3-yl)-4-aminopyrrolo[2,1-f][1,2,4]triazin-5-yl)piperidin-3-yl)carbamoyl)benzenesulfonyl fluoride] | 32 |
